Key:
hM2 receptor = target: T1, hM2 receptor (Homo sapiens, UniProt P08172); assay: Blockade of agonist-mediated [35S]GTPγS binding; format: biochemical; conditions: CHO-K1 cells expressing the hM2 receptor (membranes); read-out: Ki value for blockade of oxotremorine-stimulated [35S]GTPγS binding
T1 construct: expressed in transfected cells; host or cells: CHO-K1 cells
T1 sequence (P08172 1-466): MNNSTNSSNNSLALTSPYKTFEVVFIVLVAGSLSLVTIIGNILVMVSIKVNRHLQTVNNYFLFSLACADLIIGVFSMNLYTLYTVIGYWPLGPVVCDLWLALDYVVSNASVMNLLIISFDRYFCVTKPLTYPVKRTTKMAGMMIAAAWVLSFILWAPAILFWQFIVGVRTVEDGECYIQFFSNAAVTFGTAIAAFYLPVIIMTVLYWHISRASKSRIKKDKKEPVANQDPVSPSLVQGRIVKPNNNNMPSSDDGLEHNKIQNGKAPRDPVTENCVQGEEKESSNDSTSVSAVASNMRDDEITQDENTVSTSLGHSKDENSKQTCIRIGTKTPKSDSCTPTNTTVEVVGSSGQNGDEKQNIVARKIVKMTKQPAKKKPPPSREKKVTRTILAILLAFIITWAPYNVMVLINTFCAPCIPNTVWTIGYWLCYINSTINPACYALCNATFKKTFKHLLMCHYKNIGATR
Method: B. Blockade of Agonist-Mediated [^35 S]GTPγS Binding
In a second functional assay, the functional potency of a test compound is determined by measuring the ability of the compound to block oxotremorine-stimulated [^35S]GTPγS binding in CHO-K1 cells expressing the hM2 receptor.
At the time of use, frozen membranes were thawed and then diluted in assay buffer with a final target tissue concentration of 5-10 μg protein per well. The membranes were briefly homogenized using a Polytron PT-2100 tissue disrupter and then added to the assay plates.
The EC90 value (effective concentration for 90% maximal response) for stimulation of [^35S]GTPγS binding by the agonist oxotremorine was determined in each experiment.
The assay plates were then incubated at 37° C. for 60 minutes. The assay plates were filtered over 1% BSA-pretreated GF/B filters using a PerkinElmer 96-well harvester. The plates were rinsed with ice-cold wash buffer for 3×3 seconds and then air or vacuum dried. Microscint-20 scintillation liquid (50 μL) was added to each well, and each plate was sealed and radioactivity counted on a topcounter (PerkinElmer). Data were analyzed by nonlinear regression analysis with the GraphPad Prism Software package (GraphPad Software, Inc., San Diego, Calif.) using the non-linear regression, one-site competition equation. […]

[1] = test system: ACh-induced bronchoconstriction; assay: Duration of bronchoprotection in guinea pig model of acetylcholine-induced bronchoconstriction; format: in vivo; conditions: inhalation, 1.5 hours post-dose
Method: Groups of six male guinea pigs (Duncan-Hartley (HsdPoc:DH) Harlan, Madison, Wis.) weighing between 250 and 350 g were individually identified by cage cards. Throughout the study animals were allowed access to food and water ad libitum.
The test compound was administered via inhalation over 10 minutes in a whole-body exposure dosing chamber (R&S Molds, San Carlos, Calif.). The dosing chambers were arranged so that an aerosol was simultaneously delivered to 6 individual chambers from a central manifold. Guinea pigs were exposed to an aerosol of a test compound or vehicle (WFI). […] This was measured gravimetrically by comparing pre-and post-nebulization weights of the filled nebulizer.
The bronchoprotective effects of a test compound administered via inhalation were evaluated using whole body plethysmography at 1.5, 24, 48 and 72 hours post-dose.
Forty-five minutes prior to the start of the pulmonary evaluation, each guinea pig was anesthetized with an intramuscular injection of ketamine (43.75 mg/kg), xylazine (3.50 mg/kg) and acepromazine (1.05 mg/kg). […] The depth of anesthesia was monitored and adjusted if the animal responded to pinching of its paw or if the respiration rate was greater than 100 breaths/minute. […]
Starting this program initiated the experimental protocol and data collection. […] By integrating this signal over time, a measurement of flow was calculated for each breath. […]

Ki (hM2 receptor): < 5 nM
SMILES: CNCCCCCCCCN1CC[C@@H](C(C(N)=O)(c2ccccc2)c2ccccc2)C1 [compound of formula I, 2-[(S)-1-(8-methylaminooctyl)pyrrolidin-3-yl]-2,2-diphenylacetamide]
PD2(50) for ACh-induced bronchoconstriction [1]: less than 200 μg/mL
